ChEMBL document CHEMBL1157550, “Incorporation of fluorinated phenylalanine generates highly specific inhibitor of proteasome's chymotrypsin-like sites” (J Med Chem, 2010)
The source made the active and inactive calls. The calls are words filed in the database; no cut-off is given here.

Key:
[1] = molecular target: T1, Proteasome component C5 (Homo sapiens) (UniProt P20618); experiment: Inhibition of 26S proteasome beta 1 in human HEK293 cell lysate assessed as residual activity at 13.5 uM after 1 hr; assay type: cell-free
T1 sequence (whole entry): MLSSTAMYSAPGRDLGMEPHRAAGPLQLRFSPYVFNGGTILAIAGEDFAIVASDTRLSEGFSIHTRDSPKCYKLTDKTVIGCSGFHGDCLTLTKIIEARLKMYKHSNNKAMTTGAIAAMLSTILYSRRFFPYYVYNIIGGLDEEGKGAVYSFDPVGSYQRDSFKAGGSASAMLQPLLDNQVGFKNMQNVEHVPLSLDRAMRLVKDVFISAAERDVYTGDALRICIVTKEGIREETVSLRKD

[2] = molecular target: T1, Proteasome component C5 (Homo sapiens); experiment: (§1) Inhibition of 26S proteasome beta 1 in human HEK293 cell lysate assessed as residual activity at […] after 1 hr; assay type: cell-free
[3] = molecular target: T1, Proteasome component C5 (Homo sapiens); experiment: Inhibition of 26S proteasome beta 1 in human HEK293 cell lysate assessed as residual activity at 1.5 uM after 1 hr; assay type: cell-free
[4] = molecular target: T1, Proteasome component C5 (Homo sapiens); experiment: Inhibition of 26S proteasome beta 1 in human HEK293 cell lysate assessed as residual activity at 0.5 uM after 1 hr; assay type: cell-free
[5] = molecular target: T1, Proteasome component C5 (Homo sapiens); experiment: Inhibition of 26S proteasome beta 1 in human HEK293 cell lysate assessed as residual activity at 0.167 uM after 1 hr; assay type: cell-free
[6] = molecular target: T1, Proteasome component C5 (Homo sapiens); experiment: as §1; assay type: cell-free; remark: listed apart in the source
[7] = molecular target: T1, Proteasome component C5 (Homo sapiens); experiment: Inhibition of 26S proteasome beta 1 in human HEK293 cell lysate assessed as residual activity at 0.019 uM after 1 hr; assay type: cell-free
[8] = molecular target: T1, Proteasome component C5 (Homo sapiens); experiment: Inhibition of 26S proteasome beta 1 in human HEK293 cell lysate assessed as residual activity at 0.002 uM after 1 hr; assay type: cell-free
[9] = molecular target: T1, Proteasome component C5 (Homo sapiens); experiment: Inhibition of 26S proteasome beta 1 in human HEK293 cell lysate assessed as residual activity at 0.001 uM after 1 hr; assay type: cell-free
[10] = molecular target: Proteasome Macropain subunit (Homo sapiens) (UniProt P49721); experiment: (§2) Inhibition of 26S proteasome beta 2 in human HEK293 cell lysate assessed as residual activity at […] after 1 hr; assay type: cell-free
Proteasome Macropain subunit (Homo sapiens), sequence (P49721 whole entry): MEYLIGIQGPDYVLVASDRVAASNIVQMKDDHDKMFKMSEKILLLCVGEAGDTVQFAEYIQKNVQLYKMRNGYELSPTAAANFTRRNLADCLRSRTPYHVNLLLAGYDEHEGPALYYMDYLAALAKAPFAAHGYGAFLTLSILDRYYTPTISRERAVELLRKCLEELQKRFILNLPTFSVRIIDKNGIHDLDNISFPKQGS

[11] = molecular target: Proteasome Macropain subunit (Homo sapiens) (UniProt P49721); experiment: Inhibition of 26S proteasome beta 2 in human HEK293 cell lysate assessed as residual activity at 1.5 uM after 1 hr; assay type: cell-free
[12] = molecular target: Proteasome Macropain subunit (Homo sapiens) (UniProt P49721); experiment: Inhibition of 26S proteasome beta 2 in human HEK293 cell lysate assessed as residual activity at 0.5 uM after 1 hr; assay type: cell-free
[13] = molecular target: Proteasome Macropain subunit (Homo sapiens) (UniProt P49721); experiment: Inhibition of 26S proteasome beta 2 in human HEK293 cell lysate assessed as residual activity at 0.167 uM after 1 hr; assay type: cell-free
[14] = molecular target: Proteasome Macropain subunit (Homo sapiens) (UniProt P49721); experiment: as §2; assay type: cell-free; remark: listed apart in the source
[15] = molecular target: Proteasome Macropain subunit (Homo sapiens) (UniProt P49721); experiment: Inhibition of 26S proteasome beta 2 in human HEK293 cell lysate assessed as residual activity at 0.019 uM after 1 hr; assay type: cell-free
[16] = molecular target: Proteasome Macropain subunit (Homo sapiens) (UniProt P49721); experiment: Inhibition of 26S proteasome beta 2 in human HEK293 cell lysate assessed as residual activity at 0.006 uM after 1 hr; assay type: cell-free
[17] = molecular target: Proteasome Macropain subunit (Homo sapiens) (UniProt P49721); experiment: Inhibition of 26S proteasome beta 2 in human HEK293 cell lysate assessed as residual activity at 0.002 uM after 1 hr; assay type: cell-free
[18] = molecular target: Proteasome Macropain subunit (Homo sapiens) (UniProt P49721); experiment: Inhibition of 26S proteasome beta 2 in human HEK293 cell lysate assessed as residual activity at 0.001 uM after 1 hr; assay type: cell-free
[19] = molecular target: T1, Proteasome component C5 (Homo sapiens); experiment: Inhibition of 26S proteasome beta 1 in human HEK293 cell lysate assessed as residual activity at 0.006 uM after 1 hr; assay type: cell-free
[20] = molecular target: Proteasome Macropain subunit (Homo sapiens) (UniProt P49721); experiment: Inhibition of 26S proteasome beta 2 in human HEK293 cell lysate assessed as residual activity at 13.5 uM after 1 hr; assay type: cell-free
[21] = molecular target: T1, Proteasome component C5 (Homo sapiens); experiment: Displacement of fluorescent labeled MV151 from 26S proteasome beta 1 in human HEK293 cell lysate assessed as residual activity at 1 uM after 1 hr by SDS-PAGE; assay type: cell-free
[22] = molecular target: T1, Proteasome component C5 (Homo sapiens); experiment: Displacement of fluorescent labeled MV151 from 26S proteasome beta 1 in human HEK293 cell lysate assessed as residual activity at 100 uM after 1 hr by SDS-PAGE; assay type: cell-free
[23] = molecular target: Proteasome Macropain subunit (Homo sapiens) (UniProt P49721); experiment: Displacement of fluorescent labeled MV151 from 26S proteasome beta 2 in human HEK293 cell lysate assessed as residual activity at 100 uM after 1 hr by SDS-PAGE; assay type: cell-free
[24] = molecular target: T2, Proteasome Macropain subunit MB1 (Homo sapiens) (UniProt P28074); experiment: Displacement of fluorescent labeled MV151 from 26S proteasome beta 5 in human HEK293 cell lysate assessed as residual activity at 1 uM after 1 hr by SDS-PAGE; assay type: cell-free
T2 sequence (whole entry): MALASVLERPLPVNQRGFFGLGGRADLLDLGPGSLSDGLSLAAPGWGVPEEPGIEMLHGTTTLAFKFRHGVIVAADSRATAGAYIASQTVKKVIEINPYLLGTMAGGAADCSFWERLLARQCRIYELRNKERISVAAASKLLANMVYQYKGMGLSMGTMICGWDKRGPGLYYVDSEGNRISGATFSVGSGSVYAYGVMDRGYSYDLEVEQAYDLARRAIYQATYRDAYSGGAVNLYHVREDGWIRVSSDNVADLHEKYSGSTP

[25] = molecular target: T1, Proteasome component C5 (Homo sapiens); experiment: Displacement of fluorescent labeled MV151 from 26S proteasome beta 1 in human HEK293 cell lysate assessed as disappearance of band at 0.1 to 1 uM after 1 hr by SDS-PAGE; assay type: cell-free
[26] = molecular target: T2, Proteasome Macropain subunit MB1 (Homo sapiens); experiment: Displacement of fluorescent labeled MV151 from 26S proteasome beta 5 in human HEK293 cell lysate assessed as disappearance of band at 0.1 to 1 uM after 1 hr by SDS-PAGE; assay type: cell-free
[27] = molecular target: T2, Proteasome Macropain subunit MB1 (Homo sapiens); experiment: Displacement of fluorescent labeled MV151 from 26S proteasome beta 5 in human HEK293 cell lysate assessed as residual activity at 100 uM after 1 hr by SDS-PAGE; assay type: cell-free
[28] = molecular target: Proteasome Macropain subunit (Homo sapiens) (UniProt P49721); experiment: Displacement of fluorescent labeled MV151 from 26S proteasome beta 2 in human HEK293 cell lysate assessed as residual activity at 1 uM after 1 hr by SDS-PAGE; assay type: cell-free
[29] = molecular target: Proteasome subunit beta type-5 (Homo sapiens) (UniProt P28074); experiment: Inhibition of 26S proteasome beta 5 in human HEK293 cell lysate assessed as residual activity at […] after 1 hr
[30] = molecular target: Proteasome subunit beta type-5 (Homo sapiens) (UniProt P28074); experiment: as above; remark: listed apart in the source
[31] = molecular target: Proteasome subunit beta type-5 (Homo sapiens) (UniProt P28074); experiment: Inhibition of 26S proteasome beta 5 in human HEK293 cell lysate assessed as residual activity at 1.5 uM after 1 hr
[32] = molecular target: Proteasome subunit beta type-5 (Homo sapiens) (UniProt P28074); experiment: Inhibition of 26S proteasome beta 5 in human HEK293 cell lysate assessed as residual activity at 0.5 uM after 1 hr
[33] = molecular target: Proteasome subunit beta type-5 (Homo sapiens) (UniProt P28074); experiment: Inhibition of 26S proteasome beta 5 in human HEK293 cell lysate assessed as residual activity at 13.5 uM after 1 hr
[34] = molecular target: Proteasome subunit beta type-5 (Homo sapiens) (UniProt P28074); experiment: Inhibition of 26S proteasome beta 5 in human HEK293 cell lysate assessed as residual activity at 0.167 uM after 1 hr
[35] = molecular target: Proteasome subunit beta type-5 (Homo sapiens) (UniProt P28074); experiment: Inhibition of 26S proteasome beta 5 in human HEK293 cell lysate assessed as residual activity at 0.019 uM after 1 hr
[36] = molecular target: Proteasome subunit beta type-5 (Homo sapiens) (UniProt P28074); experiment: Inhibition of 26S proteasome beta 5 in human HEK293 cell lysate assessed as residual activity at 0.006 uM after 1 hr
[37] = molecular target: Proteasome subunit beta type-5 (Homo sapiens) (UniProt P28074); experiment: Inhibition of 26S proteasome beta 5 in human HEK293 cell lysate assessed as residual activity at 0.002 uM after 1 hr
[38] = molecular target: Proteasome subunit beta type-5 (Homo sapiens) (UniProt P28074); experiment: Inhibition of 26S proteasome beta 5 in human HEK293 cell lysate assessed as residual activity at 0.001 uM after 1 hr

Activity [1] [%]	Activity [2] [%]	Activity [3] [%]	Activity [4] [%]	Activity [5] [%]	Activity [6] [%]	Activity [7] [%]	Activity [8] [%]	Activity [9] [%]	Activity [10] [%]	Activity [11] [%]	Activity [12] [%]	Activity [13] [%]	Activity [14] [%]	Activity [15] [%]	Activity [16] [%]	Activity [17] [%]	Activity [18] [%]	Activity [19] [%]	Activity [20] [%]	Structure (SMILES)	further results
71.2	77.6	90.1	98.3	99.5	105	104	106	100	71	84.2	95.6	112	120	109	90.7	106	105	77.3	54.1	CC(C)C[C@H](NC(=O)[C@H](Cc1c(F)c(F)c(F)c(F)c1F)NC(=O)[C@H](Cc1ccccc1)NC(=O)[C@H](Cc1ccccc1)N=[N+]=[N-])C(=O)[C@@]1(C)CO1	Activity [21]: 248%; Activity [22]: 15.4%; Activity [23]: 116%; Activity [24]: 11.6%
																				CC(C)C[C@H](NC(=O)[C@H](Cc1ccccc1)NC(=O)c1cnccn1)B1OC2C[C@@H]3C[C@@H](C3(C)C)[C@]2(C)O1 (stereo partly specified)	Activity [25]: Active; Activity [26]: Active
58.3	54	69.9	58.4	84.9	104	76.8	100	105	26.1	37	65.8	89	115	82	105	109	106	96.5	10.6	CC(C)C[C@H](NC(=O)[C@H](Cc1ccccc1)NC(=O)[C@H](Cc1ccccc1)NC(=O)[C@H](Cc1ccccc1)N=[N+]=[N-])C(=O)[C@@]1(C)CO1	Activity [21]: 139%; Activity [22]: 7.2%; Activity [23]: 133%; Activity [24]: 4.6%
50.3	67.7	82.8	89.9	93.5	103	98.1	102	106	77.1	97.3	99.1	112	111	111	105	99.6	106	97.8	57.9	CC(C)C[C@H](NC(=O)[C@H](Cc1cc(C(F)(F)F)cc(C(F)(F)F)c1)NC(=O)[C@H](Cc1ccccc1)NC(=O)[C@H](Cc1ccccc1)N=[N+]=[N-])C(=O)[C@@]1(C)CO1	Activity [27]: 2.6%; Activity [21]: 156%; Activity [22]: 61%; Activity [28]: 4.3%; Activity [23]: 92%; Activity [24]: 45%; Activity [29]: 5.2%; Activity [30]: 66.2%; Activity [31]: 9.5%; Activity [32]: 19.7%; Activity [33]: 3%; Activity [34]: 34.9%; Activity [35]: 100%; Activity [36]: 92.2%; Activity [37]: 97%; Activity [38]: 109%
